Target: HIV-1 protease (Human immunodeficiency virus type 1 group M subtype B, UniProt P04585)
Assay: Inhibition of proteolytic activity of HIV-1 protease, Test 1 (method of Louis et al.)
Assay type: biochemical
Text: TEST 1--INHIBITION OF PROTEOLYTIC ACTIVITY OF HIV-1-PROTEASE
The ability of compounds of the invention to inhibit the proteolytic activity of HIV-1 protease can be determined by using the method of Louis, et al., Biochem. Biophys. Res. Comm. 159:87-94, (1989), which is herein incorporated by reference. In using the method of Louis et al., HIV Substrate III, His-Lys-Ala-Arg-Val-Leu-pNO2 Phe-Glu-Ala-Nle-Ser-NH2 purchased from Bachem Bioscience, Inc. Philadelphia, Pa. can be used in place of the nonapeptide substrate […]amide.

CC(C)(C)NC(=O)c1ccccc1SCC(O)C(Cc1ccccc1)NC(=O)C1CC2CCCCC2N1C(=O)OC(C)(C)C (stereo not shown) [U, 1-[(1,1-dimethylethoxy)carbonyl]-N-[3-[[2-[[(1,1-dimethylethyl)amino]carbonyl]phenyl]thio]-2(R and/or S)-hydroxy-1(R and/or S)-(phenylmethyl)-propyl]octahydroindole-2-carboxamide]
IC50: 38 µM

Reference: patent US5693815A, “Peptides” (Schering Corporation, priority 1995, dated 1997)
